Data from patent US12274703B2, “Compositions and methods of treatment for neurological disorders comprising a dementia” (Gliapharm SA, priority 2017, dated 2025).
Where a name gives a salt, the structure may show the parent alone.

Each molecule was assayed on primary astrocytes (assay: High throughput screening for lactate secretion: acidification of extracellular medium (SNARF5)). Settings: Mus musculus, Astrocyte, 1.5 h; Appendix I; primary screening, 10 uM, 90 min; relative to positive control; read-out: Score.
Type: cell-based, mouse
Method: (§1) Primary cultures of cerebrocortical astrocytes were obtained from 1-2-day-old OF1 mouse pups (Charles River Laboratories). Briefly, cortices were isolated and minced in small pieces under a dissecting microscope. The cells were incubated for 30 min at 37° C. in a solution containing 20 U/ml of papain enzyme (Worthington Biochemical), L-cysteine 1 mM (Sigma), and 10 kU/ml DNase I (Worthington Biochemical) for an enzymatic dissociation. Papain activity was stopped by the addition of fetal calf serum (FCS) to the solution, and a single-cell suspension was then obtained by mechanical dissociation, which consisted in cells trituration in a DMEM (D7777, Sigma-Aldrich) medium (supplemented with 44 mm NaHCO3, and 10 ml/L antibiotic/antimycotic solution) containing 10% FCS. The cells were seeded at an average density of 6×10^4 cells/cm^2 in poly-D-lysine-coated 96, 12 or 6-well culture plates, depending on their use, and incubated at 37° C. in a humidified atmosphere containing 5% CO2/95% air. Culture medium was renewed twice per week. Cells were stimulated and harvested between DIV14 and DIV17, when confluence and cell growth were optimal.
Secretion of lactate in a high-throughput screening (HTS) fashion was measured indirectly through the acidification of extracellular medium. To this end, primary astrocytes grown in 96-well plates for 17 days were stimulated with the compounds as listed herein.
After washing the cells twice with stimulation medium (DMEM (D5030, Sigma), 3 mM NaHCO3 and 5 mM Glucose) at 37° C., cells were stimulated with the compounds at a final concentration of 10 uM (1% DMSO final) in 50 ul per well of stimulation medium supplemented with 10 uM of the extracellular pH sensor SNARF-5F %-(AND-6)-CAR (Life Technologies Corporation). Each compound was tested in two different plates for duplicates.
After 90 min stimulation, fluorescence was read at exc. (excitation) 480 nm/emm. (emission) 580 nm and at exc 480 nm/emm. 630 nm. The ratio of fluorescence between 630 nm and 580 emission values, which represents extracellular pH, was calculated.
In each plate, 8 wells were used for negative controls (DMSO) and 8 wells were used for positive controls (CCCP 2 uM in DMSO). Z prime values were calculated for each of the plates tested and values <0 were discarded.
The average and SD of compounds' values tested in duplicates were calculated, and compound was noted as HIT when the difference between compound's average and negative control's average was greater than three times the sum of compound's SD and negative controls' SD. Only scores greater than 40% were considered as lead hits for the CDC54K library; for the remaining libraries, all hits were considered. Scores are calculated as the % of activity compared to the positive control in each plate (which is 100%).
Primary screening hits were cherry picked on new plates and confirmed for SNARF5 effect, after having discarded those compounds that are fluorescent (exc. 480 nm/emm. 580 nm or 630 nm) before stimulation. Extracellular medium was next analyzed for extracellular lactate quantification for secondary screening.
Identification of lactate-enhancing drugs with high throughput screening (HTS) experiments on astrocytes primary cultures using extracellular pH dye (SNARF5F 5-(and 6)-carboxylic acid) for 90 min. The procedure is described in Material and Methods (2. Cell culture, 2.1. HTS for lactate secretion and 2.2. Extracellular lactate quantification).
The procedure was performed as follows: • Primary screening: acidification of the extracellular medium • Primary screening confirmation: acidification of the extracellular medium, removal of compounds with fluorescent activity at exc. 480 nm/emm. 580 nm or 630 nm. • Secondary screening: dosage of extracellular lactate

SMILES | Emax at 10 µM
Cc1nc2c(c(Nc3cccc(C(F)(F)F)c3)n1)CCC2 [D278-0514] | 0%
CCn1nccc1-c1csc(S(=O)(=O)Nc2ccccc2OC)c1 [L924-1088] | 78.5%
Cc1cccc([N+]2=C3SCCCN3C(O)(c3ccc(F)cc3)C2)c1 (stereo not shown) [K404-0394] | 34.7%
Fc1ccc(Nc2nc(N3CCOCC3)c3ccccc3n2)cc1 [T0508-5193] | 19.5%
CC1c2ccsc2CCN1c1ncnc2sccc12 (stereo not shown) [T5630309] | 72.2%
Cc1ccsc1C(=O)NC1CCN(c2ncnc3c2CCC3)C1 (stereo not shown) [T636-1114] | 72.5%
CC(=O)N1CCCc2cc(S(=O)(=O)NCc3cccc(C(F)(F)F)c3)ccc21 [T6099519] | 27.6%
COc1ccccc1[N+]1=C2CCCCCN2C(O)(c2ccc(F)cc2)C1 (stereo not shown) [F0524-0611] | 53.4%
Cc1oc2ncnc(N3CCCC(C(=O)NCc4ccccc4)C3)c2c1C (stereo not shown) [F228-0365] | 103%
COc1ccc(CN2CCN(c3ncnc4c3CCC4)CC2)cc1OC [T636-2007] | 102%
CCN(Cc1ccccc1)S(=O)(=O)c1cc(-c2noc(C3CCCC3)n2)cs1 [L287-1758] | 0%
O=C(NCc1cccc(F)c1)NC1CCN(c2ncnc3c2CCC3)C1 (stereo not shown) [T636-1243] | 45.5%
COc1ccccc1[N+]1=C2CCCCCN2C(O)(c2cccc([N+](=O)O)c2)C1 (stereo not shown) [K404-0842] | 16.9%
OC1(c2ccccc2)C[N+](c2ccccc2)=C2SCCCN21 (stereo not shown) [T0507-8442] | 26.8%
c1csc(C(Nc2ncnc3sccc23)C2CC2)c1 (stereo not shown) [T5713637] | 114%
Cc1cccc([N+]2=C3SCCCN3C(O)(c3ccc(Cl)cc3)C2)c1 (stereo not shown) [F0522-0533] | 55.7%
Cc1ccc(CNS(=O)(=O)c2cc(-c3noc(C4CCCC4)n3)cs2)cc1 [L287-1641] | 77.2%
CCn1nccc1-c1csc(S(=O)(=O)Nc2cc(C)ccc2C)c1 [L924-0988] | 52.7%
COc1ccc(C2(O)C[N+](c3ccccc3C)=C3CCCCCN32)cc1OC (stereo not shown) [K404-0906] | 19.1%
CCc1ccc(C2(O)C[N+](c3ccccc3OC)=C3CCCCN32)cc1 (stereo not shown) [K404-0672] | 125%
O=S(=O)(Nc1ccc2[nH]ncc2c1)c1ccc(C(F)(F)F)cc1 [T5653029] | 36.2%
COc1cccc(CNc2ncnc3c2CCC3)c1 [T636-0134] | 75.1%

SMILES | Emax at 10 µM
O=S(=O)(Nc1ccc(F)c(Cl)c1)c1ccc2ccccc2c1 [T5231424] | 67.3%
COc1ccc(C2(O)C[N+](c3cc(C)ccc3C)=C3SCCCN32)c(F)c1 (stereo not shown) [K404-0183] | 89.6%
Cc1ccc(CN2CCN(c3ncnc4c3CCC4)CC2)o1 [T636-1937] | 74%
Cc1ccc(C)c([N+]2=C3CCCCN3C(O)(c3ccc(F)cc3)C2)c1 (stereo not shown) [K404-0697] | 59.6%
Cn1nccc1-c1csc(S(=O)(=O)Nc2ccc(F)cc2)c1 [L924-0760] | 69.1%
CCc1ccc(S(=O)(=O)N2CCSC2c2ccc(OC)c(OC)c2)cc1 (stereo not shown) [4052-4304] | 49.4%
Cc1cccc([N+]2=C3CCCCCN3C(O)(c3cccc([N+](=O)O)c3)C2)c1 (stereo not shown) [K404-0915] | 0%
Cc1ccccc1NS(=O)(=O)c1ccc2onc(C(=O)N3CCCCC3)c2c1 [L995-0405] | 21.3%
c1ccc2c(c1)CN(c1ncnc3sccc13)CCN2 [T6768300] | 34.4%
c1cncc(CCNc2ncnc3c2CCC3)c1 [T636-0085] | 28.4%
Cn1nc(CC(=O)Nc2cccc(C(=O)NC3CC3)c2)c2ccccc2c1=O [T5543110] | 39.1%
CC(=O)c1ccc(NS(=O)(=O)c2cc(-c3noc(C4CCCC4)n3)cs2)cc1 [L287-1577] | 119%
c1coc(CNc2nc(-c3ccncc3)nc3c2CCC3)c1 [T636-0973] | 0%
COc1ccc(C2(O)C[N+](c3cccc(C)c3)=C3CCCCN32)cc1 (stereo not shown) [K404-0796] | 86.1%
COc1ccc([N+]2=C3SCCCN3C(O)(c3cccc([N+](=O)[O-])c3)C2)cc1 (stereo not shown) [K404-0277] | 0%
Cc1ccc([N+]2=C3CCCCCN3C(O)(c3ccc([N+](=O)[O-])cc3)C2)cc1 (stereo not shown) [K404-0828] | 0%
COc1ccc(C)cc1NS(=O)(=O)c1cc(-c2ccnn2C)cs1 [L924-0830] | 78.2%
O=C(NC1CC1)c1cccc(NS(=O)(=O)c2ccc(N3CCCC3=O)cc2)c1 [T5618591] | 41.6%
Cc1nc(-c2cccc(NS(=O)(=O)c3ccc(N4CCCC4=O)cc3)c2)cs1 [T5599698] | 85.6%
Cc1ccc(CNS(=O)(=O)c2ccc3onc(C(=O)N4CCCCC4)c3c2)cc1 [L995-0386] | 18.8%
CNC(=O)C1CCCN(c2ncnc3oc(C)c(C)c23)C1 (stereo not shown) [F228-0541] | 15.3%

Same assay, conditions: Mus musculus, Astrocyte, 1.5 h; Prestwick hits; 10 uM, 90 min; activity relative to positive control CCCP 2 uM; read-out: Score

SMILES | Emax at 10 µM
CC(COc1ccccc1)NC(C)C(O)c1ccc(O)cc1 (stereo not shown) [Isoxsuprine hydrochloride] | 5.5%
CCCCOc1cc(C(=O)NCCN(CC)CC)c2ccccc2n1 [Dibucaine] | 6.12%
Clc1ccc2c(c1)CCc1cccnc1C2=C1CCNCC1 [Desloratadine] | 6.08%
CCC(=O)O[C@@H](O[P@](=O)(CCCCc1ccccc1)CC(=O)N1C[C@H](C2CCCCC2)C[C@H]1C(=O)O)C(C)C [Fosinopril] | 5.71%

Same assay, conditions: Mus musculus, Astrocyte, 1.5 h; Prestwick hits; 10 uM, 90 min; relative to positive control CCCP 2 uM; read-out: HTS Score (lactate)

SMILES | Emax at 10 µM
CC(COc1ccccc1)NC(C)C(O)c1ccc(O)cc1 (stereo not shown) [Isoxsuprine hydrochloride] | 5.5%
CCCCOc1cc(C(=O)NCCN(CC)CC)c2ccccc2n1 [Dibucaine] | 6.1%
Clc1ccc2c(c1)CCc1cccnc1C2=C1CCNCC1 [Desloratadine] | 6.1%
CCC(=O)O[C@@H](O[P@](=O)(CCCCc1ccccc1)CC(=O)N1C[C@H](C2CCCCC2)C[C@H]1C(=O)O)C(C)C [Fosinopril] | 5.7%

These molecules were tested on astrocytes (assay: Extracellular lactate quantification). Settings: Mus musculus, Astrocyte; Appendix II; lactate secretion; read-out: EC50.
Type: cell-based, mouse
Method: as §1
Secretion of L-lactate was determined in the extracellular medium of 96-well plated astrocytes after 90 min stimulation (at 37° C., in 5% CO2/95% air conditions) with the drug of interest. The stimulation medium was composed of D5030 medium (completed with D-glucose 5 mM and 44 mM sodium bicarbonate) for 90 min in concentrations ranging from 0 to 100 μM.
Briefly, 200 μl of a Glycine (Sigma)-Semicarbazide (Acros) 0.2M pH 10 buffer containing 3 mM NAD (Roche) and LDH 14 U/ml (Roche) was added to each well of a 96-well plate containing 30 μl aliquots complemented with 20 μl fresh complete D5030 medium. Samples were incubated at 37° C. for 1 h. After samples cooled down at room temperature, the fluorescence intensity (340 nm excitation/450 nm emission) that represents the amount of NADH produced was measured, and lactate concentration values were determined from a standard curve of L-lactate.
Statistical analysis consisted in ANOVA followed by Fisher LSD post-hoc test for pair-wise comparisons.
Levels of lactate secreted by astrocytes were measured in the extracellular medium at 90 min after stimulation with hits (molecules) from the CDC54K library.

SMILES | EC50
CCc1cccc(NS(=O)(=O)c2ccc3c(c2)CCCN3C(C)=O)c1 [G855-0143] | 4.72 µM
CCOc1ccc(C2(O)C(C)[N+]3=C(CCC3)N2c2ccc(OC)cc2)cc1 (stereo not shown) [T0500-6629] | 2.61 µM
CCN(CC)C(=O)c1nc(CNC(=O)c2ccc3ccccc3n2)oc1C [T993-1787] | 7.99 µM
C1CCCC(NC2=NCCCNC23CCCCC3)CC1 [Z076-0028] | 8.01 µM
COc1cc(C)c(NC(=O)Cc2ccc(Cl)c(Cl)c2)cc1OC [T5783794] | 6.11 µM
COc1ccc(S(=O)(=O)Nc2ccc(N3CCCCS3(=O)=O)cc2)cc1C [F2794-0128] | 9.85 µM
Cc1c(O)ccc2c(CN(C)CC3COc4ccccc4O3)cc(=O)oc12 (stereo not shown) [T5494352] | 5.02 µM
CCNc1cc(C)nc(Nc2ccc(NC(=O)Cc3ccccc3)cc2)n1 [G869-0064] | 4.26 µM
Cc1cccc(NS(=O)(=O)c2ccc(F)c(Cl)c2)c1 [F3394-1364] | 5.87 µM
CCn1c(=O)c(C)nc2cc(C(=O)N(Cc3ccc(F)cc3)C3CC3)ccc21 [T5586091] | 5.36 µM
c1ccc(CN2CCOCC2)c(CNc2ncnc3ccsc23)c1 [T5790476] | 3.98 µM
Cn1nc(C(=O)Nc2ccc(Oc3ccccc3Cl)cc2)ccc1=O [T5813085] | 4.1 µM
CCOc1ccc(CN(C)CC(=O)Nc2cccc(C)c2)cc1OC [T5318833] | 5.45 µM
